# Laboratory results from publication PMC7693184 (Angewandte Chemie (International Ed. in English), 2020).
# Biological target: T1, BtuR (ATP:Co(I)rrinoid adenosyltransferase) (Brucella melitensis, UniProt Q8YHV0)
# T1 construct: gene BMEI0696
# Settings: excess cob(I)alamin as corrinoid substrate; inhibitor 5 μM; not a substrate itself
# T1 sequence (Q8YHV0 1-189): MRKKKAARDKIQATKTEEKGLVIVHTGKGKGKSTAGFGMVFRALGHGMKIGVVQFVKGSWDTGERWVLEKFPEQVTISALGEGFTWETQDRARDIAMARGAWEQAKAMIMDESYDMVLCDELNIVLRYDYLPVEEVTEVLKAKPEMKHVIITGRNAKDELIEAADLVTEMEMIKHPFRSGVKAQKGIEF
substance,measurement,value
nibalamin [Nibl],% inhibition at 5 μM,60%
